According to patent publication US20240308976A1, “COMPOUNDS THAT MEDIATE PROTEIN DEGRADATION AND USES THEREOF” (Monte Rosa Therapeutics, Inc., priority 2021, published 2024):

Experiments:
GSPT1 = biological target: T1, GSPT1 (Homo sapiens, UniProt P15170+Q96SW2); assay: Immunofluorescence assay for activity to degrade GSPT1 in CAL-51 cells; type: cell-based; settings: 6 h treatment, read-out: IF Class (GSPT1 degradation, DC50)
T1 construct: CAL-51 cells were purchased from DSMZ (cat. Number ACC302); host or cells: CAL-51
Procedure, shortened: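 CAL-51 cells treated 6 h with compound (30 μM to 0.1 nM), fixed, immunostained for GSPT1 with DAPI and phalloidin counterstains, imaged by high-content microscopy. Mean per-cell GSPT1 intensity normalized to controls; DC50 by non-linear regression.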

CRBN-DDB1 = CRBN-DDB1 (Homo sapiens, UniProt Q96SW2); assay: Compound binding to CRBN by HTRF assay; settings: CRBN-DDB1 2.5 nM, Cy5-Thalidomide 100 nM, 30 min at ambient temperature; read-out: HTRF Class (Cereblon binding, HTRF IC50)
Procedure, shortened: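 Cy5-thalidomide (100 nM) displacement from His-tagged CRBN-DDB1 (2.5 nM) read by terbium-cryptate HTRF (665/620 nm), in 20 mM HEPES, 20 mM NaCl, 0.2 mM TCEP, 0.2 mM EDTA, 0.005% Tween20. Compounds tested as 10-point 1:3 series, 30 min at ambient temperature. Signal normalised to DMSO and lenalidomide controls; IC50 fitted, Ki by Cheng-Prusoff.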

T1 sequence (P15170 whole entry): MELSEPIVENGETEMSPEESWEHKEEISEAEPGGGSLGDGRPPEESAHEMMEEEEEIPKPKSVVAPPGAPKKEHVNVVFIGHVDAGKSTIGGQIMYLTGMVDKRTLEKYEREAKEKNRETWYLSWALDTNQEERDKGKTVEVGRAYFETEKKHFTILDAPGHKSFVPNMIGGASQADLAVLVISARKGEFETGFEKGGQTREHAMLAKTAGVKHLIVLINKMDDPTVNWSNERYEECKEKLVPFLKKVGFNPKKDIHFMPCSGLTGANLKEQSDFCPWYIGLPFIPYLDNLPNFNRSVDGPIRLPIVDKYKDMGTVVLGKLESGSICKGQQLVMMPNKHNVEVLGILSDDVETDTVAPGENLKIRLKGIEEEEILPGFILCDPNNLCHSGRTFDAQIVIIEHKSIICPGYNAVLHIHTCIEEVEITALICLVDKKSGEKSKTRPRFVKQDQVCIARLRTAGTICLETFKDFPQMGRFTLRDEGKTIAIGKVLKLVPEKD
T1 sequence (Q96SW2 whole entry): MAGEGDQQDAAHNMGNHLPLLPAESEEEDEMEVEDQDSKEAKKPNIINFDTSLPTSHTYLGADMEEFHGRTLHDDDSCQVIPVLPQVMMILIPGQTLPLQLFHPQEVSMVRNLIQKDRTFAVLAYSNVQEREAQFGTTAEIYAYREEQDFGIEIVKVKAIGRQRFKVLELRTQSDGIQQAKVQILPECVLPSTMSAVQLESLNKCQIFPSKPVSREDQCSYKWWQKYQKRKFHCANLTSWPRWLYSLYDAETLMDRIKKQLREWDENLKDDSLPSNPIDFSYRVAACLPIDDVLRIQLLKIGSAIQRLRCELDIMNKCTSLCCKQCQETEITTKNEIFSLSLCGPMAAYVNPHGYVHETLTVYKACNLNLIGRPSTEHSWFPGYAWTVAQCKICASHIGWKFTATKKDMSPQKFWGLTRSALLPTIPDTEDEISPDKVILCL
T1 sequence (Q16531 2-1140 partner limits assumed): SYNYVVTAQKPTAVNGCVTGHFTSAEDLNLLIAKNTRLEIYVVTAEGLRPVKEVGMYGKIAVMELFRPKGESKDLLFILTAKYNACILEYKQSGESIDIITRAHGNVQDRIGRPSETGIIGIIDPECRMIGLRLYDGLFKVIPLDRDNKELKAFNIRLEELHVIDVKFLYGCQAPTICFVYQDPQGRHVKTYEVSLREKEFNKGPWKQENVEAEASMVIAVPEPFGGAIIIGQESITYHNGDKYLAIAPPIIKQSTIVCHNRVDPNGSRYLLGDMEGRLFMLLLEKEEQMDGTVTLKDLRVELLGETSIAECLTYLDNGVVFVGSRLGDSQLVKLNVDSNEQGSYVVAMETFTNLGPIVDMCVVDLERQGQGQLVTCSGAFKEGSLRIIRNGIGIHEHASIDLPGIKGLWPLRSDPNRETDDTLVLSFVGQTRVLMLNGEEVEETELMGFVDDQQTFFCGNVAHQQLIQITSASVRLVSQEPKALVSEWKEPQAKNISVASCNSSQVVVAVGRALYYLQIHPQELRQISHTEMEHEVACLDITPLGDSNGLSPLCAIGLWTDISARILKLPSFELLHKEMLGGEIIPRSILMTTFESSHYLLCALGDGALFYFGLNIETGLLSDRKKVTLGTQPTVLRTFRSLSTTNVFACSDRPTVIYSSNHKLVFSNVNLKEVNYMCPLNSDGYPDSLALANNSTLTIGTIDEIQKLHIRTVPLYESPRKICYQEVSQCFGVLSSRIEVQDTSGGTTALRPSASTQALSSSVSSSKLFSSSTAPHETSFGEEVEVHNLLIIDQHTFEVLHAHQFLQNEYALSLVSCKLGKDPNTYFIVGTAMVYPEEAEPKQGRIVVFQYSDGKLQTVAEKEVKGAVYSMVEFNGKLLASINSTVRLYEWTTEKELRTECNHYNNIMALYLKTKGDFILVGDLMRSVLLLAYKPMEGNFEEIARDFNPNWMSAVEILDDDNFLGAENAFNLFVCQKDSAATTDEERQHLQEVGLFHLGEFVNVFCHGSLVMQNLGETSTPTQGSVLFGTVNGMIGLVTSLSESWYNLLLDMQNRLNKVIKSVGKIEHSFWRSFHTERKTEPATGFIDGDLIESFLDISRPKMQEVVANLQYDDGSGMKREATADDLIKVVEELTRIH
Sequence of CRBN-DDB1 (Q96SW2 whole entry): as the sequence (Q96SW2 whole entry) above
Sequence of CRBN-DDB1 (Q16531 whole entry partner): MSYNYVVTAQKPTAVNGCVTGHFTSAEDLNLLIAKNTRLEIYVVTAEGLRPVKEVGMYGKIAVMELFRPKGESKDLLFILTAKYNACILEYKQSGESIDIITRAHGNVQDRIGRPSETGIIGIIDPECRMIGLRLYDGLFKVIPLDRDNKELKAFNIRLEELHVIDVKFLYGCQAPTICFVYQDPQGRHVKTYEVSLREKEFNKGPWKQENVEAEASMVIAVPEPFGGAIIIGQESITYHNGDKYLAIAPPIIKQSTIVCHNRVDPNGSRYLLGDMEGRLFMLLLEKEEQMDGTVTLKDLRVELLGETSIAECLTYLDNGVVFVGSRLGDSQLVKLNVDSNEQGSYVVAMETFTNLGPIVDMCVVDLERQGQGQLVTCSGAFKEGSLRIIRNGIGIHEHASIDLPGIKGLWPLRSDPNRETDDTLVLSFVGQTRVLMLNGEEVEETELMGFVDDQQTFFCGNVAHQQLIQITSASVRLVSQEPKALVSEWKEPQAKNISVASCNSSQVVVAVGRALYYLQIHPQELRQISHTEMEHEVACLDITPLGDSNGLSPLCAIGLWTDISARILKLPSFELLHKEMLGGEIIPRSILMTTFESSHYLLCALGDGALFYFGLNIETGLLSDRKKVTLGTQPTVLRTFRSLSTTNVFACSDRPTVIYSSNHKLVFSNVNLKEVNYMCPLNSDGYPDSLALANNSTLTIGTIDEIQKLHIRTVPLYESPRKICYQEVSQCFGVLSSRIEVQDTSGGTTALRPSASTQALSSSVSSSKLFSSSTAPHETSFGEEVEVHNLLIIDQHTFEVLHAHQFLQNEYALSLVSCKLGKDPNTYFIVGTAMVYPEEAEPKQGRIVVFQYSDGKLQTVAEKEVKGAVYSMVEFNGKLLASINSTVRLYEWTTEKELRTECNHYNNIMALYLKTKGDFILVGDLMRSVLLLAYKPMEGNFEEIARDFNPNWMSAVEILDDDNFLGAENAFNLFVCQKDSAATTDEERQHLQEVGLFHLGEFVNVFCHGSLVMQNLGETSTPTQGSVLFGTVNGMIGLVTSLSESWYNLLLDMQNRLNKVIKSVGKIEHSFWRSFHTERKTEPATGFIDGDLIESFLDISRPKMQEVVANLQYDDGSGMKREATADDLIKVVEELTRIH

| DC50 (GSPT1) | IC50 (CRBN-DDB1) | Compound |
| --- | --- | --- |
| > 300 nM | 100 to 1000 nM | O=C1CCC(c2c(F)cc(N3CC(OC(=O)NC45CC(C4)C5)C3)cc2F)C(=O)N1 (stereo not shown) [Compound 63, 1-(4-(2,6-dioxopiperidin-3-yl)-3,5-difluorophenyl)azetidin-3-yl bicyclo[1.1.1]pentan-1-ylcarbamate] |
| ≤ 30 nM | 100 to 1000 nM | O=C1CCC(c2c(F)cc(N3CC(OC(=O)NC45CC(c6ccccc6)(C4)C5)C3)cc2F)C(=O)N1 (stereo not shown) [Compound 61, 1-(4-(2,6-dioxopiperidin-3-yl)-3,5-difluorophenyl)azetidin-3-yl(3-phenylbicyclo[1.1.1]pentan-1-yl) carbamate] |
| 30 to 300 nM | > 1000 nM | Cc1ccc(NC(=O)OC2CN(c3ccc(C4CCC(=O)NC4=O)c(C#N)c3)C2)cc1Cl (stereo not shown) [Compound 57, 1-(3-cyano-4-(2,6-dioxopiperidin-3-yl)phenyl)azetidin-3-yl(3-chloro-4-methylphenyl)carbamate] |
| > 300 nM | 100 to 1000 nM | O=C1CCC(c2c(F)cc(N3CC(OC(=O)NC45CC(F)(C4)C5)C3)cc2F)C(=O)N1 (stereo not shown) [Compound 62, 1-(4-(2,6-dioxopiperidin-3-yl)-3,5-difluorophenyl)azetidin-3-yl(3-fluorobicyclo[1.1.1]pentan-1-yl)carbamate] |
| 30 to 300 nM | ≤ 100 nM | O=C1CCC(c2c(F)cc(N3CC(OC(=O)N[C@@H]4CC5CCC4C5)C3)cc2F)C(=O)N1 (stereo partly drawn) [Compound 140, 1-(4-(2,6-dioxopiperidin-3-yl)-3,5-difluorophenyl)azetidin-3-yl(2R)-bicyclo[2.2.1]heptan-2-ylcarbamate] |
| ≤ 30 nM | ≤ 100 nM | O=C1CCC(c2c(F)cc(N3CC(OC(=O)NCC4CCCC4)C3)cc2F)C(=O)N1 (stereo not shown) [Compound 139, 1-(4-(2,6-dioxopiperidin-3-yl)-3,5-difluorophenyl)azetidin-3-yl (cyclopentylmethyl)carbamate] |
| > 300 nM | 100 to 1000 nM | O=C1CCC(c2c(F)cc(N3CC(OC(=O)N4CCCCC4)C3)cc2F)C(=O)N1 (stereo not shown) [Compound 143, 1-(4-(2,6-dioxopiperidin-3-yl)-3,5-difluorophenyl)azetidin-3-yl piperidine-1-carboxylate] |
| 30 to 300 nM | 100 to 1000 nM | O=C1CCC(c2c(F)cc(N3CC(OC(=O)NCC4CCC4)C3)cc2F)C(=O)N1 (stereo not shown) [Compound 91, 1-(4-(2,6-dioxopiperidin-3-yl)-3,5-difluorophenyl)azetidin-3-yl (cyclobutylmethyl)carbamate] |
| 30 to 300 nM | 100 to 1000 nM | Cc1c(Cl)cc(NC(=O)OC2CN(c3cc(F)c(C4CCC(=O)NC4=O)c(F)c3)C2)cc1C#N (stereo not shown) [Compound 53, 1-(4-(2,6-dioxopiperidin-3-yl)-3,5-difluorophenyl)azetidin-3-yl(3-chloro-5-cyano-4-methylphenyl) carbamate] |
| ≤ 30 nM | ≤ 100 nM | C[C@@H](NC(=O)OC1CN(c2cc(F)c(C3CCC(=O)NC3=O)c(F)c2)C1)c1ccccc1 (stereo partly drawn) [Compound 123, 1-(4-(2,6-dioxopiperidin-3-yl)-3,5-difluorophenyl)azetidin-3-yl((R)-1-phenylethyl)carbamate] |
| ≤ 30 nM | ≤ 100 nM | CC1(NC(=O)OC2CN(c3cc(F)c(C4CCC(=O)NC4=O)c(F)c3)C2)CCCCC1 (stereo not shown) [Compound 135, 1-(4-(2,6-dioxopiperidin-3-yl)-3,5-difluorophenyl)azetidin-3-yl (1-methylcyclohexyl)carbamate] |
| > 300 nM | ≤ 100 nM | O=C1CCC(c2c(F)cc(N3CC(NC(=O)Nc4cc(-c5ccccc5)ccn4)C3)cc2F)C(=O)N1 (stereo not shown) [Compound 25, 1-(1-(4-(2,6-dioxopiperidin-3-yl)-3,5-difluorophenyl)azetidin-3-yl)-3-(4-phenylpyridin-2-yl) urea] |
| ≤ 30 nM | 100 to 1000 nM | CC1(c2ccc(NC(=O)NC3CN(c4cc(F)c(C5CCC(=O)NC5=O)c(F)c4)C3)cc2)CC1 (stereo not shown) [Compound 60, 1-(1-(4-(2,6-dioxopiperidin-3-yl)-3,5-difluorophenyl)azetidin-3-yl)-3-(4-(1-methylcyclopropyl)phenyl)urea] |
| ≤ 30 nM | 100 to 1000 nM | Cc1ccc(NC(=O)NC2CN(c3cc(F)c(C4CCC(=O)NC4=O)c(F)c3)C2)cc1OC(F)F (stereo not shown) [Compound 21, 1-(3-(difluoromethoxy)-4-methylphenyl)-3-(1-(4-(2,6-dioxopiperidin-3-yl)-3,5-difluorophenyl)azetidin-3-yl)urea] |
| ≤ 30 nM | ≤ 100 nM | Cc1cc(NC(=O)OC2CN(c3cc(F)c(C4CCC(=O)NC4=O)c(F)c3)C2)ccc1F (stereo not shown) [Compound 76, 1-(4-(2,6-dioxopiperidin-3-yl)-3,5-difluorophenyl)azetidin-3-yl (4-fluoro-3-methylphenyl)carbamate] |
| 30 to 300 nM | 100 to 1000 nM | O=C1CCC(c2c(F)cc(N3CC(NC(=O)Nc4cccc(OC(F)(F)F)c4)C3)cc2F)C(=O)N1 (stereo not shown) [Compound 18, 1-(1-(4-(2,6-dioxopiperidin-3-yl)-3,5-difluorophenyl)azetidin-3-yl)-3-(3-(trifluoromethoxy)phenyl)urea] |
| > 300 nM | 100 to 1000 nM | O=C1CCC(c2c(F)cc(N3CC(OC(=O)NCC4CC4)C3)cc2F)C(=O)N1 (stereo not shown) [Compound 82, 1-(4-(2,6-dioxopiperidin-3-yl)-3,5-difluorophenyl)azetidin-3-yl (cyclopropylmethyl)carbamate] |
| 30 to 300 nM | 100 to 1000 nM | O=C1CCC(c2c(F)cc(N3CC(NC(=O)Nc4cc(F)cc(OC(F)F)c4)C3)cc2F)C(=O)N1 (stereo not shown) [Compound 22, 1-(3-(difluoromethoxy)-5-fluorophenyl)-3-(1-(4-(2,6-dioxopiperidin-3-yl)-3,5-difluorophenyl)azetidin-3-yl)urea] |
| 30 to 300 nM | 100 to 1000 nM | COc1c(N2CC(OC(=O)Nc3ccc(C)c(Cl)c3)C2)cc(F)c(C2CCC(=O)NC2=O)c1F (stereo not shown) [Compound 46, 1-(4-(2,6-dioxopiperidin-3-yl)-3,5-difluoro-2-methoxyphenyl)azetidin-3-yl (3-chloro-4-methylphenyl) carbamate] |
| ≤ 30 nM | ≤ 100 nM | Cc1c(Cl)cc(NC(=O)NC2CN(c3cc(F)c(C4CCC(=O)NC4=O)c(F)c3)C2)cc1OCCN1CCOCC1 (stereo not shown) [Compound 13, 1-(3-chloro-4-methyl-5-(2-morpholinoethoxy)phenyl)-3-(1-(4-(2,6-dioxopiperidin-3-yl)-3,5-difluorophenyl)azetidin-3-yl)urea] |
| ≤ 30 nM | ≤ 100 nM | Cc1c(Cl)cc(NC(=O)NC2CN(c3cc(F)c(C4CCC(=O)NC4=O)c(F)c3)C2)cc1CN1CCOCC1 (stereo not shown) [Compound 24, 1-(3-chloro-4-methyl-5-(morpholinomethyl)phenyl)-3-(1-(4-(2,6-dioxopiperidin-3-yl)-3,5-difluorophenyl)azetidin-3-yl) urea] |
| ≤ 30 nM | 100 to 1000 nM | O=C1CCC(c2c(F)cc(N3CC(OC(=O)NC45CC(C(F)F)(C4)C5)C3)cc2F)C(=O)N1 (stereo not shown) [Compound 70, 1-(4-(2,6-dioxopiperidin-3-yl)-3,5-difluorophenyl)azetidin-3-yl(3-(difluoromethyl)bicyclo[1.1.1]pentan-1-yl)carbamate] |
| ≤ 30 nM | 100 to 1000 nM | O=C1CCC(c2c(F)cc(N3CC(OC(=O)N[C@H]4C[C@H](c5ccccc5)C4)C3)cc2F)C(=O)N1 (stereo partly drawn) [Compound 128, 1-(4-(2,6-dioxopiperidin-3-yl)-3,5-difluorophenyl)azetidin-3-yl((1R,3R)-3 phenylcyclobutyl) carbamate] |
| ≤ 30 nM | 100 to 1000 nM | O=C1CCC(c2c(F)cc(N3CC(OC(=O)Nc4cnc(-c5ccccc5)nc4)C3)cc2F)C(=O)N1 (stereo not shown) [Compound 51, 1-(4-(2,6-dioxopiperidin-3-yl)-3,5-difluorophenyl)azetidin-3-yl(2-phenylpyrimidin-5-yl)carbamate] |
| 30 to 300 nM | 100 to 1000 nM | O=C1CCC(c2c(F)cc(N3CC(NC(=O)Nc4cc(F)cc(Cl)c4)C3)cc2F)C(=O)N1 (stereo not shown) [Compound 16, 1-(3-chloro-5-fluorophenyl)-3-(1-(4-(2,6-dioxopiperidin-3-yl)-3,5-difluorophenyl)azetidin-3-yl)urea] |
| ≤ 30 nM | 100 to 1000 nM | CC1(c2ccc(NC(=O)OC3CN(c4cc(F)c(C5CCC(=O)NC5=O)c(F)c4)C3)cn2)CC1 (stereo not shown) [Compound 43, 1-(4-(2,6-dioxopiperidin-3-yl)-3,5-difluorophenyl)azetidin-3-yl(6-(1-methylcyclopropyl)pyridin-3-yl) carbamate] |
| > 300 nM | 100 to 1000 nM | O=C1CCC(c2c(F)cc(N3CC(OC(=O)N[C@@H]4CCCOC4)C3)cc2F)C(=O)N1 (stereo partly drawn) [Compound 85, 1-(4-(2,6-dioxopiperidin-3-yl)-3,5-difluorophenyl)azetidin-3-yl((R)-tetrahydro-2H-pyran-3-yl)carbamate] |
| > 300 nM | 100 to 1000 nM | O=C1CCC(c2c(F)cc(N3CC(OC(=O)NC4CC(F)(F)C4)C3)cc2F)C(=O)N1 (stereo not shown) [Compound 88, 1-(4-(2,6-dioxopiperidin-3-yl)-3,5-difluorophenyl)azetidin-3-yl(3,3-difluorocyclobutyl)carbamate] |
| ≤ 30 nM | ≤ 100 nM | C[C@H]1CC[C@H](NC(=O)OC2CN(c3cc(F)c(C4CCC(=O)NC4=O)c(F)c3)C2)CC1 (stereo partly drawn) [Compound 124, 1-(4-(2,6-dioxopiperidin-3-yl)-3,5-difluorophenyl)azetidin-3-yl((1R,4R)-4-methylcyclohexyl) carbamate] |
